Columns and labels:
Human Mer = target: T1, Human Mer (Homo sapiens, UniProt Q12866); assay: Human Mer kinase assay (33P radiometric / HTRF KinEase); format: biochemical; conditions: protocols of Examples C-1 and/or C-2
T1 construct: Human Mer (residues R557-E882 with H628Q and R794A, 0.7 nM); purchased Eurofins Pharma Discovery Services UK Limited (KinaseProfiler service)
T1 sequence (Q12866 557-882 limits assumed): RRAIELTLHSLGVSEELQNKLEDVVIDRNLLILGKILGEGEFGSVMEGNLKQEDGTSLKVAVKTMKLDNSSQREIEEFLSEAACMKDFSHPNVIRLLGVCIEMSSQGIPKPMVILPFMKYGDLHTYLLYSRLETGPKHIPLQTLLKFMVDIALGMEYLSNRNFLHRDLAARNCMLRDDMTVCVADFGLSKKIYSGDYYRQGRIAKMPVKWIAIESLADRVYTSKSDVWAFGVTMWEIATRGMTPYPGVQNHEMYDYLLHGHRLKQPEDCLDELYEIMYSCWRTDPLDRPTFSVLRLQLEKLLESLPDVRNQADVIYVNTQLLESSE
Outline: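 Two formats yield IC50 values. HTRF KinEase used MER residues 528-999 with ATP at Km (40 μM), 1 μM biotin-peptide, 60 min RT, […], 10 concentrations. 33P filter assay used 0.7 nM Mer R557-E882 (H628Q/R794A), 10 μM ATP, 250 μM peptide, 40 min RT, top 1 μM.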

Human Met = target: T2, Human Met (Homo sapiens, UniProt P08581); assay: Human Met kinase assay (33P radiometric / HTRF KinEase); format: biochemical; conditions: protocols of Examples D-1 and/or D-2; read-out: c-Met IC50
T2 construct: Human MET (residues 956-1390)
Outline: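 Two formats gave IC50s by curve fitting. HTRF KinEase used MET residues 956-1390 with 1 μM biotin-peptide and 3.0 μM ATP (Km) for 40 min at room temperature, ten doses in 3% DMSO, 665/620 nm read. The 33P transfer assay used mutant Met R974-S1390 A1209G/V1290L (3.4 nM), 10 μM ATP, 250 μM peptide, pH 7.0, 40 min, nine doses from 1 μM.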

T2 sequence (P08581 974-1390 limits assumed): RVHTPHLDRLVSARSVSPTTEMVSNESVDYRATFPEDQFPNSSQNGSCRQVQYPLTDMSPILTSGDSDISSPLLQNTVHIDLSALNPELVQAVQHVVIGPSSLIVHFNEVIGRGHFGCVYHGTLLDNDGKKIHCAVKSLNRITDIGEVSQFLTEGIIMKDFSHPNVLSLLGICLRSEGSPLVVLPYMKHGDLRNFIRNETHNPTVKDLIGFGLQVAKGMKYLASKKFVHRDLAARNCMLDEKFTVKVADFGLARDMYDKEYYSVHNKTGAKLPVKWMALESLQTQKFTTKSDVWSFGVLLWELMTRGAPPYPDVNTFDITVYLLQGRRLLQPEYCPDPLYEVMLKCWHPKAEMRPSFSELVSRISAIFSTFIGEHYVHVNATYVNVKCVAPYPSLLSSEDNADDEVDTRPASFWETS

| IC50 (Human Mer) [nM] | IC50 (Human Met) [nM] | SMILES |
| --- | --- | --- |
| ≤ 100 | ≤ 100 | COc1cc2nccc(Oc3ccc(NC(=O)c4c5n(c(C)c(C6=CCCC6)c4=O)CCOC5)cc3)c2nc1OC [Compound 99, 7-(Cyclopenten-1-yl)-N-[4-[(6,7-dimethoxy-1,5-naphthyridin-4-yl)oxy]phenyl]-6-methyl-8-oxo-3,4-dihydro-1H-pyrido[2,1-c][1,4]oxazine-9-carboxamide] |
| > 300 | > 300 | COc1cc2nccc(Oc3ccc(NC(=O)c4c(C)n(C)c(C)c(C#N)c4=O)cc3)c2nc1OC [Compound 82, 5-Cyano-N-[4-[(6,7-dimethoxy-1,5-naphthyridin-4-yl)oxy]phenyl]-1,2,6-trimethyl-4-oxopyridine-3-carboxamide] |
| ≤ 100 | ≤ 100 | COc1cc2nccc(Oc3ccc(NC(=O)c4c5n(cc(C6=CCCCC6)c4=O)CCOC5)cc3)c2nc1OC [Compound G1-5, 7-(Cyclohexen-1-yl)-N-[4-[(6,7-dimethoxy-1,5-naphthyridin-4-yl)oxy]phenyl]-8-oxo-3,4-dihydro-1H-pyrido[2,1-c][1,4]oxazine-9-carboxamide] |
| ≤ 100 | > 300 | COc1cc2nccc(Oc3ccc(NC(=O)c4c(C)n(C)c(C)c(C5CC5)c4=O)cc3F)c2nc1OC [Compound 46, 5-Cyclopropyl-N-[4-[(6,7-dimethoxy-1,5-naphthyridin-4-yl)oxy]-3-fluorophenyl]-1,2,6-trimethyl-4-oxopyridine-3-carboxamide] |
| ≤ 100 | ≤ 100 | COc1cc2nccc(Oc3ccc(NC(=O)c4cnc(C)c(C5=CCCC5)c4O)cc3F)c2cc1OC [Compound 18, 5-(Cyclopenten-1-yl)-N-[4-(6,7-dimethoxyquinolin-4-yl)oxy-3-fluorophenyl]-4-hydroxy-6-methylpyridine-3-carboxamide] |
| ≤ 100 | ≤ 100 | COCCOc1cc2nccc(Oc3ccc(NC(=O)c4cnc(C)c(/C=C/C5CCCC5)c4O)cc3F)c2nc1OC [Compound 36, 5-[(E)-2-Cyclopentylethenyl]-N-[3-fluoro-4-[[6-methoxy-7-(2-methoxyethoxy)-1,5-naphthyridin-4-yl]oxy]phenyl]-4-hydroxy-6-methylpyridine-3-carboxamide] |
| ≤ 100 | ≤ 100 | COc1cc2nccc(Oc3ccc(NC(=O)c4c(C)c(Br)c(C)n(C5CCCC5)c4=O)cc3F)c2nc1OC [Compound 22, 5-Bromo-1-cyclopentyl-N-[4-[(6,7-dimethoxy-1,5-naphthyridin-4-yl)oxy]-3-fluorophenyl]-4,6-dimethyl-2-oxopyridine-3-carboxamide] |
| ≤ 100 | ≤ 100 | COc1cnc2c(Oc3ccc(NC(=O)c4c(C)nc(C)c(C(C)C)c4O)cc3F)ccnc2c1 [Compound 32, N-[3-Fluoro-4-[(7-methoxy-1,5-naphthyridin-4-yl)oxy]phenyl]-4-hydroxy-2,6-dimethyl-5-propan-2-ylpyridine-3-carboxamide] |
| ≤ 100 | ≤ 100 | COCCOc1cc2nccc(Oc3ccc(NC(=O)c4c(O)c(C5=CCOCC5)c(C)[n+](C)c4C)cc3F)c2nc1OC [Compound 44, 5-(3,6-Dihydro-2H-pyran-4-yl)-N-[3-fluoro-4-[[6-methoxy-7-(2-methoxyethoxy)-1,5-naphthyridin-4-yl]oxy]phenyl]-1,2,6-trimethyl-4-oxopyridine-3-carboxamide] |
| ≤ 100 | ≤ 100 | COc1cc2nccc(Oc3ccc(NC(=O)c4cnc(C)c(C5=CCOCC5)c4O)cc3)c2cc1OC [Compound 17, 5-(3,6-Dihydro-2H-pyran-4-yl)-N-[4-(6,7-dimethoxyquinolin-4-yl)oxyphenyl]-4-hydroxy-6-methylpyridine-3-carboxamide] |
| ≤ 100 | ≤ 100 | COc1cc2nccc(Oc3ccc(NC(=O)c4cn(CCF)c(C)c(C5CCCC5)c4=O)cc3F)c2nc1OC [Compound 13, 5-Cyclopentyl-N-[4-[(6,7-dimethoxy-1,5-naphthyridin-4-yl)oxy]-3-fluorophenyl]-1-(2-fluoroethyl)-6-methyl-4-oxopyridine-3-carboxamide] |
